Reference: patent publication US9169254B2, “Spiroimidazolone derivative” (Chugai Seiyaku Kabushiki Kaisha, priority 2009, dated 2015)

Target: T1, human PTH1 receptor (Homo sapiens, UniProt Q03431)
T1 sequence (Q03431 27-593): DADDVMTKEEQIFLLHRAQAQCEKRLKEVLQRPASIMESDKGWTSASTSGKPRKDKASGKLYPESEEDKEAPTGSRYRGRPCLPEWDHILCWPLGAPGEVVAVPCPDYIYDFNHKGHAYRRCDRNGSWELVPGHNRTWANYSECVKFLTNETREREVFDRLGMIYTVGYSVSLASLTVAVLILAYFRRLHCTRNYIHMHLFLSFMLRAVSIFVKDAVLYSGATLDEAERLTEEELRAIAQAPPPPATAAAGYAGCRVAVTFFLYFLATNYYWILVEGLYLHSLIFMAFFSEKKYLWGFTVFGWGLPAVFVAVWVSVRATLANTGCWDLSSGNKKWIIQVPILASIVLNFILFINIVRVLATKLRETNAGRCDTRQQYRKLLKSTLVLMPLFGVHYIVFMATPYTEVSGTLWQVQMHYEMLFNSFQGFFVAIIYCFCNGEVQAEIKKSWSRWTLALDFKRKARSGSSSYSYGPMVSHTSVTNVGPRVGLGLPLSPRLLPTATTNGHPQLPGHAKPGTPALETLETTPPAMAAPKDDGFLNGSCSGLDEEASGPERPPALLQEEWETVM
Assay: In vitro cAMP signal activity in HKRK-B7 cells (LLC-PK1 cells overexpressing the human PTH1 receptor)
Assay type: cell-based
Settings: HKRK-B7 cells; compound at 1×10^−3 M; cAMP produced as percentage of that produced by hPTH(1-34) at 100 nM

Row | Structure (SMILES) | cAMP production activity (%)
1 | Cc1cc(C(=O)N2C[C@@H](C)N[C@@H](C)C2)cc(C)c1/C=C/S(=O)(=O)N1CCC2(CC1)N=C(c1ccc(F)c(C(F)(F)F)c1)NC2=O [Compound 969, 8-{(E)-2-[4-((3R,5S)-3,5-dimethyl-piperazine-1-carbonyl)-2,6-dimethyl-phenyl]-ethenesulfonyl}-2-(4-fluoro-3-trifluoromethyl-phenyl)-1,3,8-triaza-spiro[4.5]dec-1-en-4-one] | 45
2 | COc1c(N(C)C(N)=O)cc(C)c(/C=C/S(=O)(=O)N2CCC3(CC2)N=C([C@H]2CC[C@H](C)CC2)NC3=O)c1C [Compound 693, 1-(2-Methoxy-3,5-dimethyl-4-{(E)-2-[2-(4-methyl-cyclohexyl)-4-oxo-1,3,8-triaza-spiro[4.5]dec-1-ene-8-sulfonyl]-vinyl}-phenyl)-1-methyl-urea] | 103
3 | [2H]C([2H])([2H])C([2H])([2H])C([2H])([2H])C([2H])([2H])Oc1ccc(C2=NC3(CCN(S(=O)(=O)/C=C/c4c(C)cc(C(=O)N5CCC(C)(O)CC5)cc4C)CC3)C(=O)N2)cc1C(F)(F)F [Compound 1220, 2-(4-[1,1,2,2,3,3,4,4,4-^2H9]butoxy-3-trifluoromethyl-phenyl)-8-{(E)-2-[4-(4-hydroxy-4-methyl-piperidine-1-carbonyl)-2,6-dimethyl-phenyl]-ethenesulfonyl}-1,3,8-triaza-spiro[4.5]dec-1-en-4-one] | 80
4 | Cc1cc(C(=O)N(C)C2CCN(C)CC2)cc(C)c1/C=C/S(=O)(=O)N1CCC2(CC1)N=C(c1cccc(C(F)(F)F)c1)NC2=O [Compound 393, 3,5,N-trimethyl-N-(1-methyl-piperidin-4-yl)-4-{(E)-2-[4-oxo-2-(3-trifluoromethyl-phenyl)-1,3,8-triaza-spiro[4.5]dec-1-ene-8-sulfonyl]-vinyl}-benzamide] | 44
5 | Cc1cc(C(=O)N2CCN(CCOCCO)CC2)ccc1CCS(=O)(=O)N1CCC2(CC1)N=C(c1cccc(C(F)(F)F)c1)NC2=O [Compound 362, 8-[2-(4-{4-[2-(2-hydroxy-ethoxy)-ethyl]-piperazine-1-carbonyl}-2-methyl-phenyl)-ethanesulfonyl]-2-(3-trifluoromethyl-phenyl)-1,3,8-triaza-spiro[4.5]dec-1-en-4-one] | 97
6 | O=C1NC(C2CCCCC2)=NC12CCN(S(=O)(=O)c1cc3ccccc3s1)CC2 [Compound 54, 8-(benzo[b]thiophene-2-sulfonyl)-2-cyclohexyl-1,3,8-triaza-spiro[4.5]dec-1-en-4-one] | 35
7 | Cc1cc(N(C)C(N)=O)cc(C)c1/C=C/[S@TB3](=O)(=O)N1CCC2(CC1)N=C(c1ccc(CCCCCC(F)(F)F)cc1)NC2=O [Compound 1117, 1-[3,5-dimethyl-4-((E)-2-{4-oxo-2-[4-(6,6,6-trifluoro-hexyl)-phenyl]-1,3,8-triaza-spiro[4.5]dec-1-ene-8-sulfonyl}-vinyl)-phenyl]-1-methyl-urea] | 88
8 | CCc1cc(N(C)C(N)=O)ccc1/C=C/S(=O)(=O)N1CCC2(CC1)N=C(C1CCC(C)CC1)NC2=O (stereo not drawn) [Compound 727, 1-(3-ethyl-4-{(E)-2-[2-(4-methyl-cyclohexyl)-4-oxo-1,3,8-triaza-spiro[4.5]dec-1-ene-8-sulfonyl]-vinyl}-phenyl)-1-methyl-urea] | 52
9 | Cc1cc(C(=O)N2CCN(C)CC2)cc(C)c1/C=C/S(=O)(=O)N1CCC2(CC1)N=C(C1CCC(CCC(F)(F)F)CC1)NC2=O (stereo not drawn) [Compound 991, 8-{(E)-2-[2,6-dimethyl-4-(4-methyl-piperazine-1-carbonyl)-phenyl]-ethenesulfonyl}-2-[4-(3,3,3-trifluoro-propyl)-cyclohexyl]-1,3,8-triaza-spiro[4.5]dec-1-en-4-one] | 64
10 | Cc1cc(C(=O)N2CCC(C)(O)CC2)cc(C)c1/C=C/S(=O)(=O)N1CCC2(CC1)N=C(c1ccc(C(F)(F)F)c(OCC(F)(F)C(F)F)c1)NC2=O [Compound 1223, 8-{(E)-2-[4-(4-hydroxy-4-methyl-piperidine-1-carbonyl)-2,6-dimethyl-phenyl]-ethenesulfonyl}-2-[3-(2,2,3,3-tetrafluoro-propoxy)-4-trifluoromethyl-phenyl]-1,3,8-triaza-spiro[4.5]dec-1-en-4-one] | 54
11 | Cc1cc(N(C)C(N)=O)cc(C)c1CCS(=O)(=O)N1CCC2(CC1)N=C(CCCCCCCCCCCC(=O)O)NC2=O [Compound 1170, 12-(8-{2-[2,6-dimethyl-4-(1-methyl-ureido)-phenyl]-ethanesulfonyl}-4-oxo-1,3,8-triaza-spiro[4.5]dec-1-en-2-yl)-dodecanoic acid] | 24
12 | Cc1cc(N2C(=O)CC[C@@H]2CO)ccc1CCS(=O)(=O)N1CCC2(CC1)N=C(c1ccc(F)c(C(F)(F)F)c1)NC2=O [Compound 857, 2-(4-fluoro-3-trifluoromethyl-phenyl)-8-{2-[4-((R)-2-hydroxymethyl-5-oxo-pyrrolidin-1-yl)-2-methyl-phenyl]-ethanesulfonyl}-1,3,8-triaza-spiro[4.5]dec-1-en-4-one] | 89
13 | Cc1cc(C(=O)N2CCC(O)(CO)CC2)cc(C)c1/C=C/S(=O)(=O)N1CCC2(CC1)N=C(c1ccc(F)c(C(F)(F)F)c1)NC2=O [Compound 971, 2-(4-fluoro-3-trifluoromethyl-phenyl)-8-{(E)-2-[4-(4-hydroxy-4-hydroxymethyl-piperidine-1-carbonyl)-2,6-dimethyl-phenyl]-ethenesulfonyl}-1,3,8-triaza-spiro[4.5]dec-1-en-4-one] | 83
14 | Cc1cc2ccc1CCS(=O)(=O)N1CCC3(CC1)N=C(NC3=O)c1cc(cc(C(F)(F)F)c1)OCC/C=C/CCCCCCN(C)C2=O [Compound 1416] | 48
15 | Cc1cc(N(C[C@H](O)CO)C(N)=O)cc(C)c1CCS(=O)(=O)N1CCC2(CC1)N=C(C1CCC(C)CC1)NC2=O (stereo partly drawn) [Compound 830, 1-((S)-2,3-dihydroxy-propyl)-1-(3,5-dimethyl-4-{2-[2-(4-methyl-cyclohexyl)-4-oxo-1,3,8-triaza-spiro[4.5]dec-1-ene-8-sulfonyl]-ethyl}-phenyl)-urea] | 73
16 | Cc1cc(C(=O)N(C)C)ccc1CCS(=O)(=O)N1CCC2(CC1)N=C(c1ccc3ncsc3c1)NC2=O [Compound 143, 4-[2-(2-benzothiazol-6-yl-4-oxo-1,3,8-triaza-spiro[4.5]dec-1-ene-8-sulfonyl)-ethyl]-3,N,N-trimethyl-benzamide] | 4.5
17 | Cc1cc(OCCCN(C)C)ccc1/C=C/S(=O)(=O)N1CCC2(CC1)N=C(c1cccc(OC(F)(F)F)c1)NC2=O [Compound 235, 8-{(E)-2-[4-(3-dimethylamino-propoxy)-2-methyl-phenyl]-ethenesulfonyl}-2-(3-trifluoromethoxy-phenyl)-1,3,8-triaza-spiro[4.5]dec-1-en-4-one] | 49
18 | Cc1cc(C(=O)N2CCC(O)(CF)CC2)cc(C)c1CCS(=O)(=O)N1CCC2(CC1)N=C(C1CCC(CCC(F)(F)F)CC1)NC2=O (stereo not drawn) [Compound 1381, 8-{2-[4-(4-fluoromethyl-4-hydroxy-piperidine-1-carbonyl)-2,6-dimethyl-phenyl]-ethanesulfonyl}-2-[4-(3,3,3-trifluoro-propyl)-cyclohexyl]-1,3,8-triaza-spiro[4.5]dec-1-en-4-one] | 102
